Measured values taken from ChEMBL document CHEMBL1201862, “PubChem BioAssay data set” (2004).
Activity calls are given as the source filed them.

Experiments:
[1] = biological target: T1, Corticotropin-releasing factor receptor 2/Corticotropin-releasing factor-binding protein (Homo sapiens, UniProt P24387+Q13324); assay: activators of CRF receptor 2 with binding protein – uHTS hits, confirmation (AID 602473); format: functional; details: read-out: EC50_Mean
T1 sequence (Q13324 whole entry): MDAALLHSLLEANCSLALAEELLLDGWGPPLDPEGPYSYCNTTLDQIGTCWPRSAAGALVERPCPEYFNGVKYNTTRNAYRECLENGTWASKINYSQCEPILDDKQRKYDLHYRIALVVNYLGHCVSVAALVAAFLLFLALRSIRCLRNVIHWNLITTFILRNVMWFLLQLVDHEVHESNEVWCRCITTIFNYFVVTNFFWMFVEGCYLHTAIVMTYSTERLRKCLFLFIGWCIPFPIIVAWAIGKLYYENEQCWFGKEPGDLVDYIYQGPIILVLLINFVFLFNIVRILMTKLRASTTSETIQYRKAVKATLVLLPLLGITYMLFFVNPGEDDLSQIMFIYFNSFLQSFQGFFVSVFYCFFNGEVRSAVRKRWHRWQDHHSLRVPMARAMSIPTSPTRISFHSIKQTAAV
T1 sequence (P24387 whole entry): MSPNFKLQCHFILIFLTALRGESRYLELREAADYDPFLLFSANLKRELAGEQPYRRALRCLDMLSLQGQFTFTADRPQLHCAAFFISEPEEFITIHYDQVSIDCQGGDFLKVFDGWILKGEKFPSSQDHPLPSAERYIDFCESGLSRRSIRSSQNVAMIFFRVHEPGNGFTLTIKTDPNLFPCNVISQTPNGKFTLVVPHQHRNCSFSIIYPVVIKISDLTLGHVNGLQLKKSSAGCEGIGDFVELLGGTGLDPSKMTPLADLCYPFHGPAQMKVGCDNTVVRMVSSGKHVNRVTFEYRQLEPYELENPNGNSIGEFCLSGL

[2] = biological target: T1, Corticotropin-releasing factor receptor 2/Corticotropin-releasing factor-binding protein; assay: Dose Response confirmation of uHTS hits for small molecule antagonists of the CRF-binding protein and CRF-R2 receptor complex.; format: functional; details: read-out: IC50_Mean
Cytochrome P450 1A2 = biological target: T2, Cytochrome P450 1A2 (Homo sapiens, UniProt P05177);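 further: PubChem cytochrome P450 panel assay, CYP1A2 panel member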
T2 sequence (P05177 whole entry): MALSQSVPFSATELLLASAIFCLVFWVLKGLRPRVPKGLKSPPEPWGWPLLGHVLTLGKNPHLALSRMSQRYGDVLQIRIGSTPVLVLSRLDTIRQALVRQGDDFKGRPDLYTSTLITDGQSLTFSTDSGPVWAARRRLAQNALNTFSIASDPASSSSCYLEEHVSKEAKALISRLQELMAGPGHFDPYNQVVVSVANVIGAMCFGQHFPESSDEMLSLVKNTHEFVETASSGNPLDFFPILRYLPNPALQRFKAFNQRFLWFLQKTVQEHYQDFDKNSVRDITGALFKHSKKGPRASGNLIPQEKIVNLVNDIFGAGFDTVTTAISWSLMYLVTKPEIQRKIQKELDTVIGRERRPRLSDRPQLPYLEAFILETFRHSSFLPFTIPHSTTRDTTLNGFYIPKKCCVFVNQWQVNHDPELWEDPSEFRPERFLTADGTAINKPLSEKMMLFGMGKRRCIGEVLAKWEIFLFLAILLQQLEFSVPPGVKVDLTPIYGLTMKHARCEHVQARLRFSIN

Cytochrome P450 2D6 = Cytochrome P450 2D6 (Homo sapiens, UniProt P10635);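 further: CYP2D6 member of a cytochrome P450 panel assay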
Chain of Cytochrome P450 2D6 (P10635 whole entry): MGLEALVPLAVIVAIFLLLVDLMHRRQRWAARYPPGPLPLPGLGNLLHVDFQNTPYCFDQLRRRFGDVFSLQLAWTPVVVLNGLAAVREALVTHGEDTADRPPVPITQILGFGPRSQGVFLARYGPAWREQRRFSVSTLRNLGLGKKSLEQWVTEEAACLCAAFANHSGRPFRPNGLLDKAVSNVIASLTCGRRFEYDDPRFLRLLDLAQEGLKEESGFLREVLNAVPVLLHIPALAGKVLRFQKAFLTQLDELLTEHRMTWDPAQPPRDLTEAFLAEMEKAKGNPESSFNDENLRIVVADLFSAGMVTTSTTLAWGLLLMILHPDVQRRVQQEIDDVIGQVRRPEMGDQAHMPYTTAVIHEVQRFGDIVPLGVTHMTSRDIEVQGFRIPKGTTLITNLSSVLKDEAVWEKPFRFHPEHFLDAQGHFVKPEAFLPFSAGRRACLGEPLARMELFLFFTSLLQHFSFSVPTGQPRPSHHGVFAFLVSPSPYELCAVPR

[3] = NIH-3T3 fibroblast cytotoxicity, dose response, cytotoxicity control, cell-based, fluorescence, Alamar Blue, secondary assay (AID 2327); format: functional;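 further: NIH-3T3 mouse fibroblasts cultured with fluconazole at 8 µg/mL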
[4] = C. albicans growth with fluconazole, confirmation, fluorescence, retest (AID 2467); format: functional, cell-based
Cytochrome P450 3A4 = Cytochrome P450 3A4 (Homo sapiens, UniProt P08684);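 further: CYP3A4 tested as one member of a cytochrome P450 panel screen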
Chain of Cytochrome P450 3A4 (P08684 whole entry): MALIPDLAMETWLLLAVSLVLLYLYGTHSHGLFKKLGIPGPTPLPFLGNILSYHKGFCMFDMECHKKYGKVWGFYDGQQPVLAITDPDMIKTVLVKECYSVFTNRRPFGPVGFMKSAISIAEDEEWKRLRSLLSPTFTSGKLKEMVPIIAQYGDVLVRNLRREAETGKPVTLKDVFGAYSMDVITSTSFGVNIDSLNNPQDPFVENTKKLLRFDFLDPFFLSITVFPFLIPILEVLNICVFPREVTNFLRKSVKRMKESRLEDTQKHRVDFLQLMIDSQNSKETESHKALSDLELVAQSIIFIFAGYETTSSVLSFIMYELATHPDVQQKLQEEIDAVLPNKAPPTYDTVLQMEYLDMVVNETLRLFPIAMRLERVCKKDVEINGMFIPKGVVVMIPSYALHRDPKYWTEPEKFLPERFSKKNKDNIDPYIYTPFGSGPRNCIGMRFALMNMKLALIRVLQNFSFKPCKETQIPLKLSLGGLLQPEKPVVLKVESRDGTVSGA

Cytochrome P450 2C9 = Cytochrome P450 2C9 (Homo sapiens, UniProt P11712)
Chain of Cytochrome P450 2C9 (P11712 whole entry): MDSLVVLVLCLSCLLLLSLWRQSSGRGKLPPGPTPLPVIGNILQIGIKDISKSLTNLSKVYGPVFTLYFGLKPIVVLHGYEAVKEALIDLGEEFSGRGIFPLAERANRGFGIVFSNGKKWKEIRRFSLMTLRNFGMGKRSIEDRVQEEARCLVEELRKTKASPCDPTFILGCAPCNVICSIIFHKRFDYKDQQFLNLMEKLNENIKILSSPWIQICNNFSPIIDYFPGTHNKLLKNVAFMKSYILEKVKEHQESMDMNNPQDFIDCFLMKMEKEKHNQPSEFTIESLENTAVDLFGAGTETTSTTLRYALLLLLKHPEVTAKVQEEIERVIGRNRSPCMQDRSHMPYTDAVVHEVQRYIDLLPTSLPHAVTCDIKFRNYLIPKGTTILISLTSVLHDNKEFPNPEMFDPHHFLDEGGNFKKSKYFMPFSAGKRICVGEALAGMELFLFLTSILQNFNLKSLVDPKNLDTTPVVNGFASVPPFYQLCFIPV

Compound	EC50 [1]	IC50 [2]	EC50 [3]	EC50 [4]	further results
c1cc(-c2sc(-c3ccncc3)c(-c3ccncc3)c2-c2ccncc2)ccn1	–	–	–	–	AC50 (Cytochrome P450 1A2): 3.16 µM (inconclusive); AC50 (Cytochrome P450 2D6): 3.16 µM (inconclusive)
COc1cc(OC)cc(C(=O)NNC(=O)Cc2ccc(OC)c(S(=O)(=O)N3CCOCC3)c2)c1	–	–	> 150 µM (inconclusive)	> 38 µM (not active)	–
CCOC(=O)C1CCN(CCC(=O)Nc2ccc(F)cc2)CC1	–	–	> 150 µM (inactive)	5.18 µM (active)	–
CCCCCCCCCC(=O)NNC(=O)c1c(O)c2ccccc2n(CC)c1=O	–	–	> 160 µM (inactive)	> 38 µM (not active)	–
Cc1c(/C=C2\SC(=O)N(CC(=O)Nc3ccc4c(c3)OCO4)C2=O)c2ccccc2n1C	–	–	–	–	AC50 (Cytochrome P450 1A2): 3.16 µM (inconclusive); AC50 (Cytochrome P450 3A4): 200 nM (inconclusive); AC50 (Cytochrome P450 2D6): 2.82 µM (inconclusive)
O=C1C(Cl)=C(Sc2nnc3c4ccccc4c4ccccc4c3n2)C(=O)c2ccccc21	–	–	–	–	AC50 (Cytochrome P450 3A4): 5010 nM (inconclusive); AC50 (Cytochrome P450 2C9): 3.98 µM (inconclusive); AC50 (Cytochrome P450 2D6): 3.98 µM (inconclusive)
CS(=O)(=O)Nc1ccc(Nc2c3ccccc3nc3ccccc23)cc1	–	–	–	–	AC50 (Cytochrome P450 2C9): 6.31 µM (inconclusive); AC50 (Cytochrome P450 2D6): 3.16 µM (inconclusive)
CCOC(=O)c1ccc(NC(=O)c2ccc(CO)c(C(=O)NC3CCN(C(=O)OCC)CC3)c2)cc1	–	–	> 160 µM (inactive)	> 38 µM (not active)	–
CC[C@H](NC(C)C)[C@H](O)c1ccc(O)c2[nH]c(=O)ccc12 [PROCATEROL]	–	–	–	–	AC50 (Cytochrome P450 1A2): 39.8 µM (inconclusive); AC50 (Cytochrome P450 2D6): 31.6 µM (inconclusive)
Cc1nc2ccc(NC(=O)COc3ccccc3)cc2s1	–	–	> 150 µM (inactive)	> 38 µM (not active)	–
CCCCn1c(CN2CCN(C(=O)OCC)CC2)nc2c1c(=O)n(C)c(=O)n2C	–	–	> 150 µM (inactive)	> 38 µM (not active)	–

Continued, in another order:

EC50 [1]	IC50 [2]	Compound	EC50 [3]	EC50 [4]	further results
> 53 µM (inactive)	> 47.1 µM (inactive)	COc1ccc(S(=O)(=O)Nc2nc3ccccc3nc2NCC2CCCO2)cc1 (configuration not stated)	–	–	–
> 53 µM (inactive)	> 47.1 µM (inactive)	CCOc1ccc(/C=N/NC(=O)C(C)N(c2ccc(OC)cc2)S(C)(=O)=O)cc1OCC (configuration not stated)	–	–	–
> 53 µM (inactive)	> 47.1 µM (inactive)	O=C1NC(Cc2c[nH]c3ccccc23)C(=O)N1Cc1cccc2ccccc12 (configuration not stated)	–	–	–
> 53 µM (inactive)	> 47.1 µM (inactive)	CCNc1nc(NCC)n2c(SCc3ccc(F)cc3)nnc2n1	–	–	–
> 53 µM (inactive)	> 47.1 µM (inactive)	O=S(=O)(Nc1ccc2c(c1)CCC2)c1cccs1	–	–	–
> 53 µM (inactive)	> 47.1 µM (inactive)	C=C1C(C(=O)Nc2ccccc2)C1C(=O)Nc1ccccc1 (configuration not stated)	–	–	–
> 53 µM (inactive)	> 47.1 µM (inactive)	COC(=O)c1sccc1NS(=O)(=O)c1ccccc1	–	–	–
> 53 µM (inactive)	> 47.1 µM (inactive)	CCOC(=O)C1CCN(c2cc3c(cc2NC(=O)c2cc(OC)ccc2Br)n(C)c(=O)n3C)CC1	–	–	–
> 53 µM (inactive)	> 47.1 µM (inactive)	CCOc1ccccc1NC(=O)COC(=O)C1COc2ccccc2O1 (configuration not stated)	–	–	–
